Results as given in the NIST ThermoML archive (doi:10.1021/je800242n).
“And” between values parts separate entries of the source, which are not always exact repeats. Equal entries are not always repeated.

Conditions: Crystal

[F][Zn][F] [zinc fluoride]
Conditions	vapor or sublimation pressure
846 K	1.2e-05 kPa
852 K	1.2e-05 kPa
853 K	1.23e-05 kPa
854 K	1.78e-05 kPa
859 K	1.23e-05 kPa
865 K	2.4e-05 kPa
867 K	1.82e-05 kPa and 2.4e-05 kPa
871 K	2.45e-05 kPa
875 K	2.45e-05 kPa
876 K	3.55e-05 kPa and 4.79e-05 kPa
880 K	3.63e-05 kPa and 3.55e-05 kPa
883 K	4.57e-05 kPa and 3.63e-05 kPa
885 K	4.57e-05 kPa
886 K	3.63e-05 kPa
887 K	4.57e-05 kPa and 6.03e-05 kPa and 4.9e-05 kPa
888 K	4.57e-05 kPa
889 K	7.24e-05 kPa
891 K	6.03e-05 kPa
893 K	6.17e-05 kPa
895 K	6.76e-05 kPa and 4.9e-05 kPa
896 K	6.76e-05 kPa and 6.17e-05 kPa
898 K	6.76e-05 kPa and 8.32e-05 kPa and 7.41e-05 kPa
900 K	6.76e-05 kPa
902 K	8.51e-05 kPa and 8.32e-05 kPa
903 K	9.12e-05 kPa and 0.000107 kPa
904 K	7.41e-05 kPa
905 K	7.41e-05 kPa
906 K	9.12e-05 kPa and 0.000107 kPa
909 K	0.000102 kPa and 9.77e-05 kPa
910 K	0.00012 kPa
911 K	0.000115 kPa
912 K	9.77e-05 kPa
913 K	0.000138 kPa and 0.000123 kPa
914 K	0.000155 kPa and 0.00011 kPa
916 K	0.000158 kPa and 0.000166 kPa
919 K	0.000158 kPa and 0.000135 kPa
920 K	0.000166 kPa
921 K	0.000182 kPa
922 K	0.000135 kPa
923 K	0.000204 kPa and 0.000148 kPa
924 K	0.000204 kPa
925 K	0.000182 kPa
926 K	0.000229 kPa
928 K	0.000204 kPa and 0.000251 kPa
930 K	0.000251 kPa and 0.000195 kPa
932 K	0.000263 kPa
933 K	0.000195 kPa and 0.000275 kPa
934 K	0.000295 kPa and 0.000257 kPa and 0.000209 kPa
937 K	0.000316 kPa
938 K	0.000372 kPa
939 K	0.000316 kPa
940 K	0.000339 kPa
941 K	0.000372 kPa and 0.000282 kPa
942 K	0.000282 kPa and 0.000355 kPa
943 K	0.000282 kPa
945 K	0.000407 kPa
946 K	0.00038 kPa
948 K	0.000437 kPa
950 K	0.000479 kPa and 0.000513 kPa
951 K	0.000479 kPa and 0.000389 kPa
952 K	0.000363 kPa and 0.000501 kPa
955 K	0.000575 kPa
956 K	0.000513 kPa and 0.000417 kPa
958 K	0.000575 kPa
959 K	0.000589 kPa
960 K	0.000661 kPa
961 K	0.000661 kPa and 0.000525 kPa
962 K	0.000692 kPa
963 K	0.000525 kPa and 0.000692 kPa
965 K	0.000589 kPa
966 K	0.000794 kPa and 0.000692 kPa
968 K	0.000759 kPa
969 K	0.000851 kPa and 0.000912 kPa
970 K	0.000871 kPa and 0.000708 kPa
972 K	0.000912 kPa
973 K	0.000955 kPa
974 K	0.000741 kPa
975 K	0.000912 kPa and 0.000813 kPa
976 K	0.00107 kPa
978 K	0.00105 kPa and 0.00123 kPa
979 K	0.00115 kPa and 0.000933 kPa
980 K	0.00115 kPa
982 K	0.0012 kPa
983 K	0.000977 kPa and 0.00132 kPa
984 K	0.00105 kPa
986 K	0.00145 kPa and 0.00126 kPa
988 K	0.00148 kPa and 0.00158 kPa
989 K	0.00148 kPa and 0.00138 kPa and 0.00126 kPa
991 K	0.00158 kPa
993 K	0.00132 kPa and 0.00135 kPa
994 K	0.00178 kPa
996 K	0.00191 kPa and 0.00195 kPa
997 K	0.00166 kPa
998 K	0.00182 kPa and 0.00214 kPa
999 K	0.00195 kPa and 0.00166 kPa
1001 K	0.00209 kPa
1003 K	0.00178 kPa
1004 K	0.00174 kPa and 0.00245 kPa
1005 K	0.00251 kPa
1006 K	0.00245 kPa
1007 K	0.00234 kPa
1008 K	0.00219 kPa
1009 K	0.00219 kPa and 0.00295 kPa
1010 K	0.00257 kPa
1011 K	0.00269 kPa
1013 K	0.00229 kPa and 0.00316 kPa and 0.00234 kPa
1016 K	0.00347 kPa
1017 K	0.00324 kPa and 0.00295 kPa
1019 K	0.00295 kPa
1020 K	0.00295 kPa
1021 K	0.00347 kPa and 0.00339 kPa
1022 K	0.00398 kPa and 0.00302 kPa
1023 K	0.00309 kPa
1027 K	0.00407 kPa and 0.0038 kPa
1031 K	0.00447 kPa and 0.00457 kPa and 0.00537 kPa
1035 K	0.00427 kPa
1036 K	0.00525 kPa
1037 K	0.0049 kPa
1039 K	0.00562 kPa
1040 K	0.00692 kPa
1041 K	0.00562 kPa
1046 K	0.00676 kPa and 0.00575 kPa
1047 K	0.00631 kPa
